According to patent publication US20250320193A1, “OXOISOINDOLINYL SUBSTITUTED PIPERIDINEDIONE DERIVATIVE AND USE THEREOF” (GLUETACS THERAPEUTICS (SHANGHAI) CO., LTD., priority 2022, published 2025):

Key:
[1] = target: human Cereblon WT GST-tagged protein (Homo sapiens (Human), UniProt Q96SW2); experiment: CRBN-binding affinity, HTRF (CEREBLON BINDING kit, CISBIO); details: HTRF inhibitory activity
Method in brief: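 HTRF competition format: test compound displaces Thalidomide-Red from GST-tagged human Cereblon WT, detected with a Eu-labelled anti-GST antibody. Percent CRBN binding inhibition was derived from the 620 nm signal, normalized to solvent-control and protein-free blank wells.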

IKZF1 = IKZF1 (Homo sapiens (Human), UniProt Q13422+Q96SW2); experiment: Western blot, substrate protein expression in hPBMC: IKZF1; type: cell-based; details: for substrate protein remaining % IKZF1: hPBMC, compound 500 nM, 24 hours, Western blot
Method in brief: (§1)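 hPBMC, 1×10^6 cells/mL, 24 h compound exposure; RIPA lysis, BCA protein assay, SDS-PAGE, NC membrane immunoblot. Densitometry vs internal control → % protein remaining; degradation % = 100% − remaining; DC50 = conc. at 50% of DMSO band signal.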

GSPT1 = GSPT1 (Homo sapiens (Human), UniProt P15170+Q96SW2); experiment: Western blot, substrate protein expression in hPBMC: GSPT1; type: cell-based; details: for substrate protein remaining % GSPT1: hPBMC, compound 500 nM, 24 hours, Western blot; for concentration at which GSPT1 protein was clearly/significantly degraded (Western blot, FIG. 1): hPBMCs
Method in brief: as §1

IKZF3 = IKZF3 (Homo sapiens (Human), UniProt Q96SW2+Q9UKT9); experiment: Western blot, substrate protein expression in hPBMC: IKZF3; type: cell-based; details: for substrate protein remaining % IKZF3: hPBMC, compound 500 nM, 24 hours, Western blot
Method in brief: as §1

Chain of IKZF1 (Q13422 whole entry): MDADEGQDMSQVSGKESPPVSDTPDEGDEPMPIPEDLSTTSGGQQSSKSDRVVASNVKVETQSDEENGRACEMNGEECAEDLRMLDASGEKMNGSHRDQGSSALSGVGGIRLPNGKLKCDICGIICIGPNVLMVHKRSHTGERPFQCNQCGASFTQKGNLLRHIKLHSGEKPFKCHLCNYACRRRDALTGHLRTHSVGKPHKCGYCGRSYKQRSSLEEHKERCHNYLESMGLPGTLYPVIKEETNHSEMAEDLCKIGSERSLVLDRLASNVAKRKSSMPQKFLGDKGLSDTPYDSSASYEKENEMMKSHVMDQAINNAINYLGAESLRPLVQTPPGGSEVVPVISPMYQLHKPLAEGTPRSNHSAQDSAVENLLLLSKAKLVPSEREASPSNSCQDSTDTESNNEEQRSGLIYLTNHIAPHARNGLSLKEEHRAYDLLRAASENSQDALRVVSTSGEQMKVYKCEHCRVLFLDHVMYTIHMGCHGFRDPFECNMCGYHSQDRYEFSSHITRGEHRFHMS
Chain of IKZF1 (Q96SW2 whole entry): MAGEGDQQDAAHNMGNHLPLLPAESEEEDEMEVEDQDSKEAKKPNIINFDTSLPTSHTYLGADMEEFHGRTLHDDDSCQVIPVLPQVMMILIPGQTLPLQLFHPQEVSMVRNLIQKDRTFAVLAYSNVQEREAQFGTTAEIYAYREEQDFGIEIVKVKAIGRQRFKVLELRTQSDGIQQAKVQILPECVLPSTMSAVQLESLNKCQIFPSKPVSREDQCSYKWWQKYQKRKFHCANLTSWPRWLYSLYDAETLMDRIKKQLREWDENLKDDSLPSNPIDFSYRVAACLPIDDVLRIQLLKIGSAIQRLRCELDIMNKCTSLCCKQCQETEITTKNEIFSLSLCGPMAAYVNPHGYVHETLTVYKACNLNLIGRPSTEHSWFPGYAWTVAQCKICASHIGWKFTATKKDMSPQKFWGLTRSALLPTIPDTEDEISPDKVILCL
Chain of IKZF1 (Q16531 whole entry partner): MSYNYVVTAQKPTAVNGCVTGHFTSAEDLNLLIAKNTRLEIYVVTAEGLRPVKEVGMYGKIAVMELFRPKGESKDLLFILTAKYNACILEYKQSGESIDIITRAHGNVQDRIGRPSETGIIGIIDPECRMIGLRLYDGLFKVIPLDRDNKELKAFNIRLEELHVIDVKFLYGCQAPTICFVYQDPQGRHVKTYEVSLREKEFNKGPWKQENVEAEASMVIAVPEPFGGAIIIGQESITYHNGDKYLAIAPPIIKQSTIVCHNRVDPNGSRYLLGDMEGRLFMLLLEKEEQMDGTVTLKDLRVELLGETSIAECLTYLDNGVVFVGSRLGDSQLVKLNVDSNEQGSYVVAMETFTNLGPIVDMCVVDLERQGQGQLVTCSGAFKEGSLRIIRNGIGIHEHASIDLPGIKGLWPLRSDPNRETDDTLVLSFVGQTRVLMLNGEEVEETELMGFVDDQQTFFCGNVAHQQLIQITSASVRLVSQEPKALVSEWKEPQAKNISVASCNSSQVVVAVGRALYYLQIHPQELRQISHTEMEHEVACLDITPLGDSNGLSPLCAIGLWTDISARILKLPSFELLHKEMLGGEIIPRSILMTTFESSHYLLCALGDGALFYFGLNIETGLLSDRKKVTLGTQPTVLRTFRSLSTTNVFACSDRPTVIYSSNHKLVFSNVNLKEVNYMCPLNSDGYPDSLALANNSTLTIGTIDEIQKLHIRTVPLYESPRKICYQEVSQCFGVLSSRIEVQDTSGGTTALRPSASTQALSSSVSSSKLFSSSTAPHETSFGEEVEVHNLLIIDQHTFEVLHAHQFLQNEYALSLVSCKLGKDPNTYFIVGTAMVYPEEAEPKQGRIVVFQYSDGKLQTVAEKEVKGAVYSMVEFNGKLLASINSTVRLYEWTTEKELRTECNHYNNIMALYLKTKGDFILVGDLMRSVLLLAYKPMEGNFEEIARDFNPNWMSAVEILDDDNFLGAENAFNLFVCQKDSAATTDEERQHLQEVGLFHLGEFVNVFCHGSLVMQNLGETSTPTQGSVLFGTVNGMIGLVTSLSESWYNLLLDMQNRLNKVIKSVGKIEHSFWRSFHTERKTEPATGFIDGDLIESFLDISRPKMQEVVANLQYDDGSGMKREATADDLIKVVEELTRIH
Chain of GSPT1 (P15170 whole entry): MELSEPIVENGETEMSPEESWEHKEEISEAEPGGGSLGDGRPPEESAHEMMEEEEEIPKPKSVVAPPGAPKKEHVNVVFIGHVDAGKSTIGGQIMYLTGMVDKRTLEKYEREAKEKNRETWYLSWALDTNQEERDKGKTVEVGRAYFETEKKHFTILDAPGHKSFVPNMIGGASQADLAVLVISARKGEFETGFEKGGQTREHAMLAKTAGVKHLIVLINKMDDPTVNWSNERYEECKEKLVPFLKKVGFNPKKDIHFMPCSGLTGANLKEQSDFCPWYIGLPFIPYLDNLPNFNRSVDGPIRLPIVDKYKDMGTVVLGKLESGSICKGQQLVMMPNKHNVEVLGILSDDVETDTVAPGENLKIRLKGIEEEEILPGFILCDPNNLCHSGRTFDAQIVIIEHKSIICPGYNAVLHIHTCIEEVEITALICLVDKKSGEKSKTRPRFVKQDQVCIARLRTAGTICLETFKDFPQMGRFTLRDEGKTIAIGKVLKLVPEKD
Chain of GSPT1 (Q96SW2 whole entry): as the sequence (Q96SW2 whole entry) above
Chain of GSPT1 (Q16531 whole entry partner): as the sequence (Q16531 whole entry partner) above
Chain of human Cereblon WT GST-tagged protein (Q96SW2 whole entry): as the sequence (Q96SW2 whole entry) above
Chain of IKZF3 (Q9UKT9 whole entry): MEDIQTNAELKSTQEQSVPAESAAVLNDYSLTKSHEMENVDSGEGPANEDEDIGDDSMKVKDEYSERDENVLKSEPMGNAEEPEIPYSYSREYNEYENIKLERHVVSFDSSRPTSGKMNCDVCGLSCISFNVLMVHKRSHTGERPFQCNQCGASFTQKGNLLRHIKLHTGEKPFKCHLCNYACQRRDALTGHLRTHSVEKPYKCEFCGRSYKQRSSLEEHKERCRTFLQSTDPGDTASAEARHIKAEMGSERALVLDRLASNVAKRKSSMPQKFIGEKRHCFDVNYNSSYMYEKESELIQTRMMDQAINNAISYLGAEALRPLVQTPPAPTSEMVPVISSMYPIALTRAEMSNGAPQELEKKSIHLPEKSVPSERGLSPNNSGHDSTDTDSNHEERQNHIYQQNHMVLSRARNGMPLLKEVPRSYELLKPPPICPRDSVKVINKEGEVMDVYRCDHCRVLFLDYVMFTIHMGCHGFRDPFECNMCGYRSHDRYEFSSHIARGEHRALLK
Chain of IKZF3 (Q96SW2 whole entry): as the sequence (Q96SW2 whole entry) above
Chain of IKZF3 (Q16531 whole entry partner): as the sequence (Q16531 whole entry partner) above

IC50 [1] [nM]	concentration at which IKZF1 protein was significantly degraded (Western blot, FIG. 1) (IKZF1; hPBMCs)	concentration at which IKZF3 protein was significantly degraded (Western blot, FIG. 1) (IKZF3; hPBMCs)	Structure (SMILES)	substrate protein remaining % IKZF1 (IKZF1)	substrate protein remaining % GSPT1 (GSPT1)	substrate protein remaining % IKZF3 (IKZF3)	concentration at which GSPT1 protein was clearly/significantly degraded (Western blot, FIG. 1) (GSPT1)
500 to 1000	–	–	O=C1CCC(N2Cc3c(CN4CCN(C(c5ccccc5)c5ccncc5)CC4)cccc3C2=O)C(=O)N1 (stereo not shown) [GT-04945, 3-(1-oxo-4-((4-(phenyl(pyridin-4-yl)methyl)piperazin-1-yl)methyl)isoindolin-2-yl)piperidine-2,6-dione]	B (B represents substrate protein remaining % > 50%)	A (A represents 0% ≤ substrate protein remaining % ≤ 50%)	B (B represents substrate protein remaining % > 50%)	–
1000 to 1900	below 50 nM	below 50 nM	O=C1CCC(N2Cc3cc(CCCN4CCN(C(c5ccccc5)c5ccccc5)CC4)ccc3C2=O)C(=O)N1 (stereo not shown) [GT-05688, 3-(5-(3-(4-benzhydrylpiperazin-1-yl)propyl)-1-oxoisoindolin-2-yl)piperidine-2,6-dione]	A (A represents 0% ≤ substrate protein remaining % ≤ 50%)	B (B represents substrate protein remaining % > 50%)	A (A represents 0% ≤ substrate protein remaining % ≤ 50%)	–
500 to 1000	–	–	O=C1CCC(N2Cc3cc(C(=O)N4CCN(C(c5ccccc5)c5ccccc5)CC4)ccc3C2=O)C(=O)N1 (stereo not shown) [GT-05689, 3-(5-(4-benzhydrylpiperazine-1-carbonyl)-1-oxoisoindolin-2-yl)piperidine-2,6-dione]	B (B represents substrate protein remaining % > 50%)	A (A represents 0% ≤ substrate protein remaining % ≤ 50%)	B (B represents substrate protein remaining % > 50%)	below 50 nM
500 to 1000	–	–	O=C1CCC(N2Cc3c(ccc(CN4CCN(C(c5ccccn5)c5ccccn5)CC4)c3F)C2=O)C(=O)N1 (stereo not shown) [GT-05713, 3-(5-((4-(di(pyridin-2-yl)methyl)piperazin-1-yl)methyl)-4-fluoro-1-oxoisoindolin-2-yl)piperidine-2,6-dione]	B (B represents substrate protein remaining % > 50%)	A (A represents 0% ≤ substrate protein remaining % ≤ 50%)	B (B represents substrate protein remaining % > 50%)	–
1000 to 1900	–	–	O=C1CCC(N2Cc3cc(CN4CCCN(C(c5ccccc5)c5ccccc5)CC4)c(F)cc3C2=O)C(=O)N1 (stereo not shown) [GT-05738, 3-(5-((4-benzhydryl-1,4-diazepan-1-yl)methyl)-6-fluoro-1-oxoisoindolin-2-yl)piperidine-2,6-dione]	B (B represents substrate protein remaining % > 50%)	A (A represents 0% ≤ substrate protein remaining % ≤ 50%)	B (B represents substrate protein remaining % > 50%)	–
< 500	–	–	O=C1CCC(N2Cc3cc(CC4CCN(C(c5ccccc5)c5ccccc5)CC4)ccc3C2=O)C(=O)N1 (stereo not shown) [GT-05744, 3-(5-((1-benzhydrylpiperidin-4-yl)methyl)-1-oxoisoindolin-2-yl)piperidine-2,6-dione]	B (B represents substrate protein remaining % > 50%)	A (A represents 0% ≤ substrate protein remaining % ≤ 50%)	B (B represents substrate protein remaining % > 50%)	–
1000 to 1900	–	–	O=C1CCC(N2Cc3cc(C(=O)N4CCN(C(c5ccccc5)c5ccccc5)CC4)cc(F)c3C2=O)C(=O)N1 (stereo not shown) [GT-05850, 3-(5-(4-benzhydrylpiperazine-1-carbonyl)-7-fluoro-1-oxoisoindolin-2-yl)piperidine-2,6-dione]	A (A represents 0% ≤ substrate protein remaining % ≤ 50%)	A (A represents 0% ≤ substrate protein remaining % ≤ 50%)	B (B represents substrate protein remaining % > 50%)	–
< 500	–	–	O=C1CCC(N2Cc3cc(CC4CN(C(c5ccccc5)c5ccccc5)C4)ccc3C2=O)C(=O)N1 (stereo not shown) [GT-05859, 3-(5-((1-benzhydrylazetidin-3-yl)methyl)-1-oxoisoindolin-2-yl)piperidine-2,6-dione]	A (A represents 0% ≤ substrate protein remaining % ≤ 50%)	A (A represents 0% ≤ substrate protein remaining % ≤ 50%)	B (B represents substrate protein remaining % > 50%)	–
500 to 1000	–	–	O=C1CCC(N2Cc3cc(C4CCN(C(c5ccccc5)c5ccccc5)CC4)ccc3C2=O)C(=O)N1 (stereo not shown) [GT-05868, 3-(5-(1-benzhydrylpiperidin-4-yl)-1-oxoisoindolin-2-yl)piperidine-2,6-dione]	A (A represents 0% ≤ substrate protein remaining % ≤ 50%)	A (A represents 0% ≤ substrate protein remaining % ≤ 50%)	A (A represents 0% ≤ substrate protein remaining % ≤ 50%)	–
500 to 1000	–	–	O=C1CCC(N2Cc3cc(C(=O)N4CCN(C(c5ccc(F)cc5)c5ccc(F)cc5)CC4)ccc3C2=O)C(=O)N1 (stereo not shown) [GT-05881, 3-(5-(4-(bis(4-fluorophenyl)methyl)piperazine-1-carbonyl)-1-oxoisoindolin-2-yl)piperidine-2,6-dione]	B (B represents substrate protein remaining % > 50%)	A (A represents 0% ≤ substrate protein remaining % ≤ 50%)	B (B represents substrate protein remaining % > 50%)	–

Second part, the compound before the results:

Structure (SMILES)	IC50 [1] [nM]	concentration at which IKZF1 protein was significantly degraded (Western blot, FIG. 1) (IKZF1; hPBMCs)	concentration at which IKZF3 protein was significantly degraded (Western blot, FIG. 1) (IKZF3; hPBMCs)	substrate protein remaining % IKZF1 (IKZF1)	substrate protein remaining % GSPT1 (GSPT1)	substrate protein remaining % IKZF3 (IKZF3)	concentration at which GSPT1 protein was clearly/significantly degraded (Western blot, FIG. 1) (GSPT1)
O=C1CCC(N2Cc3c(CN4CCC(N(c5ccccc5)c5ccccn5)CC4)cccc3C2=O)C(=O)N1 (stereo not shown) [GT-04948, 3-(1-oxo-4-((4-(phenyl(pyridin-2-yl)amino)piperidin-1-yl)methyl)isoindolin-2-yl)piperidine-2,6-dione]	500 to 1000	–	–	B (B represents substrate protein remaining % > 50%)	A (A represents 0% ≤ substrate protein remaining % ≤ 50%)	B (B represents substrate protein remaining % > 50%)	< 500 nM
O=C1CCC(N2Cc3c(CN4CCC(N(c5ccccc5)c5ccccc5)CC4)cccc3C2=O)C(=O)N1 (stereo not shown) [GT-04992, 3-(4-((4-(diphenylamino)piperidin-1-yl)methyl)-1-oxoisoindolin-2-yl)piperidine-2,6-dione]	< 500	–	–	B (B represents substrate protein remaining % > 50%)	A (A represents 0% ≤ substrate protein remaining % ≤ 50%)	B (B represents substrate protein remaining % > 50%)	–
O=C1CCC(N2C(=O)c3ccc(CN4CC5CCC4CN5C(c4ccccc4)c4ccccc4)cc3C2=O)C(=O)N1 (stereo not shown) [GT-05730, 5-((5-benzhydryl-2,5-diazabicyclo[2.2.2]octan-2-yl)methyl)-2-(2,6-dioxopiperidin-3-yl) isoindoline-1,3-dione]	1000 to 1900	–	–	B (B represents substrate protein remaining % > 50%)	A (A represents 0% ≤ substrate protein remaining % ≤ 50%)	B (B represents substrate protein remaining % > 50%)	–
O=C1CCC(N2Cc3cc(CN4C5CC4CN(C(c4ccccc4)c4ccccc4)C5)c(F)cc3C2=O)C(=O)N1 (stereo not shown) [GT-05737, 3-(5-((3-benzhydryl-3,6-diazabicyclo[3.1.1]heptan-6-yl)methyl)-6-fluoro-1-oxoisoindolin-2-yl)piperidine-2,6-dione]	500 to 1000	–	–	B (B represents substrate protein remaining % > 50%)	A (A represents 0% ≤ substrate protein remaining % ≤ 50%)	B (B represents substrate protein remaining % > 50%)	–
O=C1CCC(N2Cc3cc(C(=O)N4CCN(C(c5ccccc5)c5ccccn5)CC4)ccc3C2=O)C(=O)N1 (stereo not shown) [GT-05854, 3-(1-oxo-5-(4-(phenyl(pyridin-2-yl)methyl)piperazine-1-carbonyl)isoindolin-2-yl)piperidine-2,6-dione]	1000 to 1900	–	–	B (B represents substrate protein remaining % > 50%)	A (A represents 0% ≤ substrate protein remaining % ≤ 50%)	B (B represents substrate protein remaining % > 50%)	–
O=C1CCC(N2Cc3cc(CN4CCC(N(c5ccccc5)c5ccccn5)CC4)cc(F)c3C2=O)C(=O)N1 (stereo not shown) [GT-05858, 3-(7-fluoro-1-oxo-5-((4-(phenyl(pyridin-2-yl)amino)piperidin-1-yl)methyl)isoindolin-2-yl)piperidine-2,6-dione]	500 to 1000	–	–	B (B represents substrate protein remaining % > 50%)	A (A represents 0% ≤ substrate protein remaining % ≤ 50%)	B (B represents substrate protein remaining % > 50%)	below 50 nM
O=C1CCC(N2Cc3cc(C(=O)N4CCN(C(c5ccccc5)c5ccccn5)CC4)cc(F)c3C2=O)C(=O)N1 (stereo not shown) [GT-05877, 3-(7-fluoro-1-oxo-5-(4-(phenyl(pyridin-2-yl)methyl)piperazine-1-carbonyl)isoindolin-2-yl)piperidine-2,6-dione]	1000 to 1900	–	–	B (B represents substrate protein remaining % > 50%)	A (A represents 0% ≤ substrate protein remaining % ≤ 50%)	B (B represents substrate protein remaining % > 50%)	–
